# Reference: patent publication US10729135B2, “Methods of controlling pests using terpendoles” (priority 2017, dated 2020)
# System: green peach aphids (Myzus persicae)
# Test: LC50 biological efficacy assay on green peach aphids, aerosolized dilutions on infested radish leaves
# Type: in vivo
# Conditions: for LC50: concentration for 50% control over 24-48 hours, infested radish leaves, 500 μl aerosolized dilution; for control of green peach aphids (in words): summary of Table 1
# Experimental: Biological efficacy assays utilizing terpendoles were conducted on green peach aphids (Myzus persicae). Specifically, terpendole A, terpendole C, terpendole J, terpendole K, terpendole N, terpendole O and terpendole P were each separately applied in serial dilutions to determine the concentration at which 50% control of green peach aphids occurred over a period of 24-48 hours (“LC50”). Radish leaves infested with green peach aphids were treated, top and bottom, with a total of 500 μl of an aerosolized terpendole dilution. Treated, aphid infested leaves were held in greenhouse conditions and evaluated for efficacy at 24 and 48 h.
SMILES,LC50,control of green peach aphids (in words)
"CC1(C)OC1[C@H]1O[C@H]2[C@H]3O[C@@]34[C@H](CC[C@@]3(C)[C@@]4(O)CC[C@H]4Cc5c([nH]c6ccccc56)[C@@]43C)O[C@@H]2C(C)(C)O1 (stereo partly drawn) [Terpendole A, terpendole A]",7 ppm,effectively controlled
"CC(C)=CCOC(C)(C)[C@H]1O[C@H]2CC[C@@]3(C)[C@@](O)(CC[C@H]4Cc5c([nH]c6ccccc56)[C@@]43C)[C@]23O[C@@H]3[C@@H]1O [Terpendole J, terpendole J]","5,183 ppm",effectively controlled
"CC(C)=C[C@H]1O[C@H]2[C@H]3O[C@@]34C(=CC[C@@]3(C)[C@@]4(O)CC[C@H]4Cc5c([nH]c6ccccc56)[C@@]43C)O[C@@H]2C(C)(C)O1 [Terpendole K, terpendole K]",44 ppm,effectively controlled
"CC(C)=C[C@@H]1O[C@H]2[C@@H](O[C@@H]3CC[C@]4(C)[C@](O)(CC[C@H](CC5(O)C(=O)Nc6cccc(CC7OC7(C)C)c65)[C@@]4(C)O)[C@@]34O[C@@H]24)C(C)(C)O1 (stereo partly drawn) [Terpendole N, terpendole N]",4 ppm,effectively controlled
"CC(C)=CCc1cccc2[nH]c3c(c12)C[C@@H]1CC[C@@]2(O)[C@@]45O[C@@H]4[C@@H]4O[C@H](C6OC6(C)C)OC(C)(C)[C@H]4O[C@H]5CC[C@]2(C)[C@@]31C (stereo partly drawn) [Terpendole O, terpendole O]",105 ppm,effectively controlled
"CC(C)=CCc1ccc2c3c([nH]c2c1)[C@@]1(C)[C@@H](CC[C@@]2(O)[C@@]45O[C@@H]4[C@@H]4O[C@H](C6OC6(C)C)OC(C)(C)[C@H]4O[C@H]5CC[C@@]21C)C3 (stereo partly drawn) [Terpendole P, terpendole P]",67 ppm,effectively controlled
